According to article PMC6976569, “Structural basis of subtype-selective competitive antagonism for GluN2C/2D-containing NMDA receptors” (Nature Communications, 2020):
Several values for one entry are separate records, joined by “and”; a condition that tells them apart may be missing. Identical values can stand only once. Like-named read-outs stand apart in the source and are kept apart here.

Tests used:
GluN1-4a/GluN2D NMDARs = biological target: T1, GluN1-4a/GluN2D NMDARs (Rattus norvegicus, UniProt P35439+Q62645); assay: TEVC electrophysiology on Xenopus laevis oocytes expressing GluN1-4a/GluN2D; format: cell-based
T1 construct: expressed in transfected cells; host or cells: Xenopus laevis oocytes injected with cRNA
T1 sequence (Q62645 28-1323, other chains not shown): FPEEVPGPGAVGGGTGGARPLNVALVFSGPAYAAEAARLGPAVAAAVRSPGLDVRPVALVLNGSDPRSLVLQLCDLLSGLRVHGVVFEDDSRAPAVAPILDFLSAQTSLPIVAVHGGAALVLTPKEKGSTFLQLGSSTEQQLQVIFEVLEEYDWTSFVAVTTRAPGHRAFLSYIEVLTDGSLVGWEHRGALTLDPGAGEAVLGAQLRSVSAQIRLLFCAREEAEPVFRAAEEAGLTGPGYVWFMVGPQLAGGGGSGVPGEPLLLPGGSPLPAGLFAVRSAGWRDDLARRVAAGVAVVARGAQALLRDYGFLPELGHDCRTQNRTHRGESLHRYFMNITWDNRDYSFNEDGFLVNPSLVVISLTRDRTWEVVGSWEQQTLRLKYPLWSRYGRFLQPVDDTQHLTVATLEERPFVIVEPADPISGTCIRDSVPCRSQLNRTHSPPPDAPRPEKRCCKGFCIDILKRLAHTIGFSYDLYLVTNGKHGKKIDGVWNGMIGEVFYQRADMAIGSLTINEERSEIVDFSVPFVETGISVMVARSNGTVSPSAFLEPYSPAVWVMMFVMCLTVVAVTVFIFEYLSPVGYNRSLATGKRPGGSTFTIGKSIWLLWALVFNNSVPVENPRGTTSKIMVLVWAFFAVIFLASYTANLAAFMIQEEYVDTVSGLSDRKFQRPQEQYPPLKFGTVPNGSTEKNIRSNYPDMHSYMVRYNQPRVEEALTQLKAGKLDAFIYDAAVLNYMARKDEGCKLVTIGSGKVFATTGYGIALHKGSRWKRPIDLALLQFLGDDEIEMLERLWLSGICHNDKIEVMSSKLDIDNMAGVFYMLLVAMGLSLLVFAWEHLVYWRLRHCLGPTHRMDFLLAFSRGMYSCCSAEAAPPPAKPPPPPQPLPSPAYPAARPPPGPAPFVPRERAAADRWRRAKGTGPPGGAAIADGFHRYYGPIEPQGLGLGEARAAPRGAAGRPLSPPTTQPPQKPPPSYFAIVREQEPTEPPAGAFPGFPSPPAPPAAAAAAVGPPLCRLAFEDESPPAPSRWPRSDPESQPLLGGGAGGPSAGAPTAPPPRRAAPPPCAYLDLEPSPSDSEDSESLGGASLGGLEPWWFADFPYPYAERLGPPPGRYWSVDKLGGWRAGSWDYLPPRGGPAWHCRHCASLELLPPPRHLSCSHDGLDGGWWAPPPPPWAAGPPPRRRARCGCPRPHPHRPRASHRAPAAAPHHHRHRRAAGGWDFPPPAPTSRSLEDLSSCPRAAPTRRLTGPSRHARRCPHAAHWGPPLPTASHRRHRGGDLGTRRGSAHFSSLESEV
Text: (§1) The chemical definition of UBP791 used in this study is a cis-racemic mixture of (2S,3R)- and (2R,3S)-isomers.
(§2) Plasmids (pSP or pCI_NEO) harboring rat GluN1 or GluN2 full-length subunits were linearized by restriction digestion and transcribed according to the manufacturer’s instructions (mMESSAGE mMachine SP6 or T7 kit, ThermoFisher Scientific). Recombinant rat GluN1-4a and GluN2 were expressed by co-injecting cRNA at a 1:2 (w/w) ratio into defolliculated X. laevis oocytes (amounts varied from 0.05–25 ng per oocyte). Two-electrode voltage-clamp recordings were performed 1–3 days after injection using agarose-tipped microelectrodes (0.4–1.2 MΩ) filled with 3 M KCl at a holding potential of −60 mV. The bath solution contained 5 mM HEPES, 100 mM NaCl, 0.3 mM BaCl2, 10 mM Tricine, at pH 7.4 (adjusted with KOH). […] For the statistical evaluation, we implemented pairwise F-tests to test variances, and then performed the Student t test with equal or unequal variances as determined previously, and accounted for multiple testing with the Bonferroni correction.

[1] = biological target: T2, GluN1-4a/GluN2D Met763Lys/Lys766Arg NMDARs (Rattus norvegicus, UniProt P35439+Q62645, K766R/M763K); assay: TEVC electrophysiology on oocytes expressing GluN1-4a/GluN2D Met763Lys/Lys766Arg; format: cell-based
T2 construct: expressed in transfected cells; host or cells: Xenopus laevis oocytes injected with cRNA
T2 sequence (Q62645 28-1323 M763K/K766R, other chains not shown): as the sequence (Q62645 28-1323, other chains not shown) above, with M736K, K739R counted along it
Text: (§3) To test the validity of the structural observation for the critical involvement of the methionine/lysine residue combination (GluN2D-Met763/Lys766, and GluN2A-4m-Met738/Lys741) in preferential binding of UBP791 to GluN2D over GluN2A, we conducted site-directed mutagenesis and assessed inhibition potencies of the mutant channels by TEVC. Specifically, we converted the GluN2D residues to the equivalent ones in the GluN2A subunit and measured macroscopic currents of the GluN1-4a/GluN2D mutant NMDARs.
as §2

[2] = biological target: T3, GluN1-4a/GluN2D Met763Lys NMDARs (Rattus norvegicus, UniProt P35439+Q62645, M763K); assay: TEVC electrophysiology on oocytes expressing GluN1-4a/GluN2D Met763Lys; format: cell-based
T3 construct: expressed in transfected cells; host or cells: Xenopus laevis oocytes injected with cRNA
T3 sequence (Q62645 28-1323 M763K, other chains not shown): as the sequence (Q62645 28-1323, other chains not shown) above, with M736K counted along it
Text: as §3, §2

[3] = biological target: T4, GluN1-4a/GluN2D Lys766Arg NMDARs (Rattus norvegicus, UniProt P35439+Q62645, K766R); assay: TEVC electrophysiology on oocytes expressing GluN1-4a/GluN2D Lys766Arg; format: cell-based
T4 construct: expressed in transfected cells; host or cells: Xenopus laevis oocytes injected with cRNA
T4 sequence (Q62645 28-1323 K766R, other chains not shown): as the sequence (Q62645 28-1323, other chains not shown) above, with K739R counted along it
Text: as §3, §2

GluN1-4a/GluN2A NMDARs [4] = biological target: T5, GluN1-4a/GluN2A NMDARs (Rattus norvegicus, UniProt Q00959); assay: TEVC electrophysiology on Xenopus laevis oocytes expressing GluN1-4a/GluN2A; format: cell-based; conditions: Ki GluN2A relative to Ki GluN2D (WT)
T5 construct: expressed in transfected cells; host or cells: Xenopus laevis oocytes injected with cRNA
T5 sequence (Q00959 23-1464, other chains not shown): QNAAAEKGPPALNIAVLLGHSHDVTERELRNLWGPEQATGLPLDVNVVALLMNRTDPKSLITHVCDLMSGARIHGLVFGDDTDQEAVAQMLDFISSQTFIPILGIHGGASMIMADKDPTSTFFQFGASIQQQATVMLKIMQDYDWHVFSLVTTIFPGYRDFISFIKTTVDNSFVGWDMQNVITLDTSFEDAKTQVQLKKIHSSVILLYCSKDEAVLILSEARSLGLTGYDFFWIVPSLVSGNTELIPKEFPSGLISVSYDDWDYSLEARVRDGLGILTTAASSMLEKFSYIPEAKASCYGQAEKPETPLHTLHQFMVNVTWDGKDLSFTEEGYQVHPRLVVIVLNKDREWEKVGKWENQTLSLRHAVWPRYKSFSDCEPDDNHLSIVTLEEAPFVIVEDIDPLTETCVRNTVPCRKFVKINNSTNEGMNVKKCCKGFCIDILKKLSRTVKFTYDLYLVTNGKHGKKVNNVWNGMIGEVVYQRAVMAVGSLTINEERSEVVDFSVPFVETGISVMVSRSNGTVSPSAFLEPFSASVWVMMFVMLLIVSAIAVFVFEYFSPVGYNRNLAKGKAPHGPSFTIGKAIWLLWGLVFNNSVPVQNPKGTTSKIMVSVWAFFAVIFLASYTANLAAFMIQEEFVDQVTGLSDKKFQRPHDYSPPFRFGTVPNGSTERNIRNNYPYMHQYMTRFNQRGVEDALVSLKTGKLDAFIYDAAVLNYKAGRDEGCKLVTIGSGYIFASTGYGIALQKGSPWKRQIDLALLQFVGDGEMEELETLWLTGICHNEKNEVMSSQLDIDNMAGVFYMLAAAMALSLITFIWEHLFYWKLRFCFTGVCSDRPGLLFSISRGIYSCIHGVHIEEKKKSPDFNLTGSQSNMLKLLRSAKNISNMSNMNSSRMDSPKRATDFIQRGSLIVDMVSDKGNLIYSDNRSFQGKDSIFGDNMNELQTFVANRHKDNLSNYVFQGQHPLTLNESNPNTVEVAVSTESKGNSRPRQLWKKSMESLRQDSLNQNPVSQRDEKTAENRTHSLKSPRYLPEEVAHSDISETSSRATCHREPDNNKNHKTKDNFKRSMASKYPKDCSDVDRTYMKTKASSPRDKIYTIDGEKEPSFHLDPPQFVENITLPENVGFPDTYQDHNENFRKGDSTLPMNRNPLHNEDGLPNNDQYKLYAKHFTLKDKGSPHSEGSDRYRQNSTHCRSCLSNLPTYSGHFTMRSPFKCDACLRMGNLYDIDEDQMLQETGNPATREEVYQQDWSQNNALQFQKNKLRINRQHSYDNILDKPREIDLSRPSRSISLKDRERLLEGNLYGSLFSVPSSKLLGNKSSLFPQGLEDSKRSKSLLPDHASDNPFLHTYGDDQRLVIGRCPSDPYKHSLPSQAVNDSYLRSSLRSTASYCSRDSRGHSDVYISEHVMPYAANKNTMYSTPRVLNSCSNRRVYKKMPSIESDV
Text: as §1, §2

GluN1-4a/GluN2A NMDARs [5] = biological target: T6, GluN1-4a/GluN2A NMDARs (Rattus norvegicus, UniProt P35439+Q00959); assay: as above; format: cell-based; conditions: Cheng–Prusoff from IC50 and L-glutamate EC50; 100 μM glycine, 1 or 3 μM L-glutamate
T6 construct: expressed in transfected cells; host or cells: Xenopus laevis oocytes injected with cRNA
Text: as §1, §2

GluK2 = GluK2 (Homo sapiens, UniProt Q13002); assay: Glutamate-stimulated Ca2+-influx fluorescence assay in HEK293 cells, GluK2; format: cell-based; conditions: for IC50: HEK293 cells, glutamate-stimulated Ca2+-influx
Chain of GluK2 (Q13002 32-908): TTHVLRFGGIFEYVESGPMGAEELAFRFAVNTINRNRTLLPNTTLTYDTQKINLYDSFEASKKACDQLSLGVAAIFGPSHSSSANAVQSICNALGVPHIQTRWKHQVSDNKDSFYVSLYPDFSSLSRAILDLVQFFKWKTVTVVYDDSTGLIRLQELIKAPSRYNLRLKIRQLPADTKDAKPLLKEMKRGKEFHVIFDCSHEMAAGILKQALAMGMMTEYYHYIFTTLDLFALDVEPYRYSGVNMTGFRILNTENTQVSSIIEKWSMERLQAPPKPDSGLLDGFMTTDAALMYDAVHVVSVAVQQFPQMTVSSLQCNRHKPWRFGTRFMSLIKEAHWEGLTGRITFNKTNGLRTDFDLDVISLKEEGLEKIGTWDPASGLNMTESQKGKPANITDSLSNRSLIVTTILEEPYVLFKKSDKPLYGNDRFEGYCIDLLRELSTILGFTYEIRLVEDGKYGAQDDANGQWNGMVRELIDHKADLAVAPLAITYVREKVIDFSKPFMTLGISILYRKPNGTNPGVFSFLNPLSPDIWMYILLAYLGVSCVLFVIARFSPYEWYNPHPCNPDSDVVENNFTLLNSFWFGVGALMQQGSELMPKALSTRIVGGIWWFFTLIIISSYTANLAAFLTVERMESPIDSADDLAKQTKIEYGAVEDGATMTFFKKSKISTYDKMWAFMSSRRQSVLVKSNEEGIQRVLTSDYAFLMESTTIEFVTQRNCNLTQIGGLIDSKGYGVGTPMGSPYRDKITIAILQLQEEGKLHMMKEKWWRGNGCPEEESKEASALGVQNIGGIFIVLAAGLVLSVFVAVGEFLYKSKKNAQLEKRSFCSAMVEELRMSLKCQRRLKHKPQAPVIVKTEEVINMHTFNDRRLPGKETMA
Method: (§4) HEK293 cell lines stably expressing homomeric glutamate receptors (GluA1, GluK1 and GluK2) were obtained from Eli Lilly and grown in DMEM (ThermoFisher) supplemented with 10% v/v fetal bovine serum (Sigma), 2 mM Glutamax™ (Gibco), 100 U/mL penicillin, 100 µg streptomycin and 250 ng amphotericin B (Sigma) in 5% CO2 at 37 °C. Cells were passaged using TrypLE (Gibco) as required before confluency and periodically treated with selection antibiotics (GluK1, GluK2 hygromycin B, 200 µg/mL; GluA1 geneticin™, 200 µg/mL).
(§5) Calcium influx fluorescence assay
(§6) 100k cells/well were seeded into a 96-well plate precoated with poly-L-lysine and incubated for 12-16 hours until fully confluent. The cell monolayer was washed twice with 100 µL Hanks Balanced Salt Solution supplemented with 5 mM CaCl2 and 20 mM HEPES (sHBSS), then incubated for 2-4 hours with 100 µL working solution of Ca6 dye (Molecular Devices) supplemented with a desensitization blocker (GluK1, GluK2 0.25 mg/mL concanavalin A, Sigma; GluA1 100 µM cyclothiazide, Sigma). The time resolved fluorescence was recorded in a Flexstation 3 instrument (Molecular Devices). For each individual reading, the initial fluorescence of the well was measured for 20 seconds, after which the desired concentration of […]
(§7) response is measured as the peak change in fluorescence upon addition of agonist. The viability of the cells was confirmed by determination of the concentration-response curve to the L-glutamate agonist and a standard antagonist for each plate. Readings of antagonists used the […]
(§8) Fluorescence traces were performed in […]
(§9) triplicate on each plate and Ki values were determined on a plate-by-plate basis. Separate experiments (n) were performed on different passages of cells. […]

GluA1 = GluA1 (Homo sapiens, UniProt P42261); assay: Glutamate-stimulated Ca2+-influx fluorescence assay in HEK293 cells, GluA1; format: cell-based; conditions: for IC50: HEK293 cells, glutamate-stimulated Ca2+-influx
Chain of GluA1 (P42261 19-906): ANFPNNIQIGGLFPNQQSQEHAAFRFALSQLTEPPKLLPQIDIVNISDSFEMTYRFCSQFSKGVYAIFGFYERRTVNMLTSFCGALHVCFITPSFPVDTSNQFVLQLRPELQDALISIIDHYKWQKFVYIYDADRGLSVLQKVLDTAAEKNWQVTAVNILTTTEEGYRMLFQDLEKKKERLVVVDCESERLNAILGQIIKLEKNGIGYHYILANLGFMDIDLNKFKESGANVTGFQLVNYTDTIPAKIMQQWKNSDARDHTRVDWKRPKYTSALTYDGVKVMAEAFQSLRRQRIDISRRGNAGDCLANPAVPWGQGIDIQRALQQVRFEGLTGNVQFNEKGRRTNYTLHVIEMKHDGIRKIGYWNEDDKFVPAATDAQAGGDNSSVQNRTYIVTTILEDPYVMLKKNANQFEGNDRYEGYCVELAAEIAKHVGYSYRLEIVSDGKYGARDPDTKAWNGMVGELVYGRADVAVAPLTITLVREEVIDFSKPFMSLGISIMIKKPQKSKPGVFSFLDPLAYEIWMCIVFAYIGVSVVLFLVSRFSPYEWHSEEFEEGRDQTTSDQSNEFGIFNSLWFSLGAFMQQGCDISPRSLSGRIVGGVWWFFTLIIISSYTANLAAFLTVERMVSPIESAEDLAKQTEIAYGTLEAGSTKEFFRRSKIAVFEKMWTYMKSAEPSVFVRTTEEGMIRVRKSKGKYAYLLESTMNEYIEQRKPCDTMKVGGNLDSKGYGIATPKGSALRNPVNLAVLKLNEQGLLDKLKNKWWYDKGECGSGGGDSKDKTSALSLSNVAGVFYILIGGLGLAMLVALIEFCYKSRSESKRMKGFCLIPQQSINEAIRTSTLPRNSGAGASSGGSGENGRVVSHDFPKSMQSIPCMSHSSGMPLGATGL
Method: as §4, §5, §6, §7, §8, §9

[6] = biological target: GluN2C-containing receptors; conditions: cited from earlier work
GluN2D = system: GluN2D; set-up: method as in Swanger et al., 2017; conditions: GluN2D expressed in mammalian cells; ref Swanger et al., 2017; cited from earlier work
[7] = biological target: GluN2D-containing receptors; conditions: cited from earlier work
GluN2A/2C-triheteromers = system: GluN2A/2C-triheteromers; set-up: method as in Swanger et al, 2017; conditions: oocyte-based system; ref Swanger et al, 2017; cited from earlier work
[8] = system: GluN2C/2D-containing NMDARs; conditions: cited from earlier work; for GluN2C/2D preference over GluN2A/2B: allosteric inhibitors
[9] = system: GluN1/GluN2B/GluN2D triheteromers; set-up: method as in Brothwell et al., 2008; Suárez et al., 2010; conditions: substantia nigra pars compacta; ref Brothwell et al., 2008; Suárez et al., 2010; cited from earlier work
[10] = system: GluN1/GluN2B/GluN2D triheteromers; set-up: method as in Volianskis et al., 2013; conditions: hippocampus, at concentrations selective for GluN2D; ref Volianskis et al., 2013; cited from earlier work
[11] = system: tPA-promoted neurotoxicity; set-up: method as in Jullienne et al, 2011; conditions: given i.v.; only active where the blood brain barrier was compromised; ref Jullienne et al, 2011; cited from earlier work
GluA2 = biological target: GluA2; set-up: method as in PMID 24462099; conditions: cited from earlier work
GluK1 = biological target: GluK1; set-up: method as in PMID 24462099; conditions: cited from earlier work
[12] = biological target: GluN2A-containing receptors; conditions: cited from earlier work
[13] = biological target: GluN2B-containing receptors; set-up: method as in earlier work; conditions: TEVC; ref 1-3 (supplementary references); cited from earlier work
GluN2A-Lys738Met = system: GluN2A-Lys738Met; set-up: method as in PMID 24462099; conditions: cited from earlier work
[14] = normalized response at 30 µM compound
[15] = normalized response at 100 µM compound
[16] = TEVC, ref 1-3 (supplementary references)

N[C@@H](CCC(=O)O)C(=O)O [L-glutamate, reference compound]
EC50 (GluN1-4a/GluN2D NMDARs): 0.17 ± 0.01 µM
EC50 [1]: 0.17 ± 0.02 µM
EC50 [2]: 0.27 ± 0.02 µM
EC50 [3]: 0.13 ± 0.02 µM

O=C(O)CCCCc1ccc2c(ccc3cc(C(=O)N4CCNC(C(=O)O)C4C(=O)O)ccc32)c1 (centres unmarked) [UBP1702]
Ki (GluN1-4a/GluN2D NMDARs; read-out: Ki): 0.13 ± 0.01 µM
fold difference of Ki vs. 2D (GluN2A) (GluN1-4a/GluN2A NMDARs [4]): ~ 52 fold
Ki (GluN1-4a/GluN2A NMDARs [5]): 6.75 ± 0.75 µM
IC50 (GluK2): > 100 µM
Mean Response (GluK2; [14]): 94.5%
Mean Response (GluK2; [15]): 96.0%
IC50 (GluA1): > 100 µM
Mean Response (GluA1; [14]): 86.5%
Mean Response (GluA1; [15]): 97.4%

CC(Cc1ccc2c(ccc3cc(C(=O)N4CCN[C@H](C(=O)O)[C@@H]4C(=O)O)ccc32)c1)C(=O)O (some centres unmarked) [UBP1701]
Ki (GluN1-4a/GluN2D NMDARs; Ki, Cheng–Prusoff from IC50 and L-glutamate EC50, 100 μM glycine, 1 or 3 μM L-glutamate): 0.1 ± 0.01 µM
fold difference of Ki vs. 2D (GluN2A) (GluN1-4a/GluN2A NMDARs [4]): ~ 45 fold
Ki (GluN1-4a/GluN2A NMDARs [5]): 4.49 ± 0.46 µM
IC50 (GluK2): > 100 µM
Mean Response (GluK2; [14]): 96.9%
Mean Response (GluK2; [15]): 96.1%
IC50 (GluA1): > 100 µM
Mean Response (GluA1; [14]): 92.5%
Mean Response (GluA1; [15]): 91.6%

CCN(CC)C(=O)Oc1ccc(C(=O)Nc2cccc3cc[nH]c23)cc1 [NAB-14]
IC50 ([6]; GluN2C-diheteromers, oocyte-based system, ref Swanger et al, 2017): 5 µM
IC50 (GluN2D): 0.58 µM and 0.584 µM
IC50 ([7]; GluN2D expressed in Xenopus oocytes, ref Swanger et al., 2017): 2.2 µM
IC50 (GluN2A/2C-triheteromers): ~15 µM
GluN2C/2D preference over GluN2A/2B [8]: about 800 fold
selectivity for recombinant GluN2C/GluN2D over GluN2A/GluN2B ([8]; reviewer's statement in peer review file, ref Swanger A. et al (2007)): > 800 fold

O=C(O)[C@H]1NCCN(C(=O)c2ccc3ccc4ccccc4c3c2)[C@H]1C(=O)O (relative stereo) [UBP141, (2R*,3S*)-1-(phenanthrene-3-carbonyl)piperazine-2,3-dicarboxylic acid]
inhibition of triheteromers [9]: inhibits
GluN2C/2D selectivity [8]: up to approximately tenfold

Cc1ccc2[nH]c(=O)c(C3=NN(C(=O)CCC(=O)O)C(c4ccc(Br)cc4)C3)c(-c3ccccc3)c2c1 (centres unmarked) [DQP-1105]
GluN2C/2D preference over GluN2A/2B [8]: ~ 50 fold

O=C(O)[C@H]1NCCN(C(=O)c2ccc3cc(Br)c4ccccc4c3c2)[C@H]1C(=O)O (relative stereo) [UBP145, (2R*,3S*)-1-(9-bromophenanthrene-3-carbonyl)piperazine-2,3-dicarboxylic acid]
block of triheteromers [10]: blocks
effect on tPA neurotoxicity [11]: blocked neurotoxicity of co-applied tissue plasminogen activator (tPA)
GluN2C/2D selectivity [8]: up to approximately tenfold

O=C(O)C1NCCN(C(=O)c2ccc3c(ccc4ccccc43)c2)C1C(=O)O [(2S,3R)-PPDA]
Ki (GluA2): 7.85 µM
fold higher potency compared to the (+)-isomer ([7]; GluN2D-containing NMDARs, ref Jespersen et al, 2014): 7 fold
fold higher potency compared to the (+)-isomer ([8]; GluN2C and GluN2D-containing NMDARs, ref Irvine et al, 2012): ~ 50 fold
potency of (2S,3R)-PPDA compared with (2R,3S)-PPDA [8]: approximately tenfold higher potency
fold higher potency than the racemate ([8]; on GluN2C and GluN2D, ref 29 (Irvine et al., 2012)): about 1.4 fold
Ki (GluK1): 1.17 µM

O=C(O)Cc1cccnc1C(=O)O [HQA, homoquinolinic acid]
EC50 [6, 16]: 30 to 90 µM
EC50 [7, 16]: 30 to 90 µM
EC50 [12, 16]: 10 to 20 µM
EC50 [13]: 10 to 20 µM

COc1ccc2nc(/C=C/c3cccc([N+](=O)[O-])c3)n(-c3ccc(C(=O)O)cc3)c(=O)c2c1 [QNZ46]
GluN2C/2D preference over GluN2A/2B [8]: ~ 50 fold

O=C(O)[C@@H]1[C@H](C(=O)O)NCCN1C(=O)c1ccc2c(ccc3ccccc32)c1 (relative stereo) [PPDA, (2S*,3R*)-1-(phenanthrene-2-carbonyl)piperazine-2,3-dicarboxylic acid]
Ki ([12]; GluN2A, PPDA values ref 27): ~0.5 µM
increase of potency compared with the WT GluN2A (GluN2A-Lys738Met): fivefold
